Measurements taken from PubChem BioAssay (NCI).
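48-hour exposure; five concentrations; linearly interpolated endpoints. The concentration for 50% growth inhibition is given as GI50. TGI marks complete inhibition of growth.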

Key:
Test in all cases: NCI tumour cell line growth inhibition, 48 h
[1] = test system: BT-549 breast
[2] = test system: NCI/ADR-RES ovarian
[3] = test system: DLD-1 colon
[4] = test system: DMS 114 small cell lung
[5] = test system: KM20L2 colon
[6] = test system: M19-MEL melanoma
[7] = test system: SNB-78 CNS
[8] = test system: XF 498 CNS
[9] = test system: RXF-631 renal

Row | SMILES | GI50 [1] [nM] | TGI [1] [µM] | GI50 [2] [nM] | TGI [2] [µM] | TGI [3] [µM] | TGI [4] [µM] | TGI [5] [µM] | TGI [6] [µM] | TGI [7] [µM] | further results
1 | COc1cc(NS(=O)(=O)c2ccc(-c3cnc(C4CC4)o3)cc2)ccc1F | 2020 | 20.3 | 339 | 10.2 | – | – | – | – | – | –
2 | CN1C(=O)c2ccccc2NC(=O)C12O[C@@H]2c1cccc(O)c1 (stereo not given in full) | – | – | – | > 100 | – | – | – | – | – | –
3 | COc1cc2c(c(OC)c1OC)-c1c(cc3c(c1OC)OCO3)C1OC2C(C)C1C (stereo not given) (tested in a mixture with another compound) | – | > 100 | – | – | – | – | – | – | – | –
4 | Cc1nc2ccccc2c(=O)n1-c1ccccc1F | – | – | – | – | > 100 | > 100 | > 100 | > 100 | > 100 | –
5 | COc1cc2c3c(n(CCNCCCNCCn4c5c(c6cc(OC)c(OC)cc6c4=O)C(=O)c4ccccc4-5)c(=O)c2cc1OC)-c1ccccc1C3=O | 2870 | > 100 | > 100000 | > 100 | – | – | – | – | – | –
6 | CC(C)N1CN(C(C(=O)N[C@@H]2C(=O)N3C2SC(C)(C)C3C(=O)O)c2ccccc2)CSC1=S (stereo not given in full) | – | – | – | – | > 100 | > 100 | > 100 | > 100 | > 100 | TGI [8]: > 100 µM
7 | COC(=O)[C@H](Cc1c[nH]c2ccccc12)NC(=O)[C@@H](OC)[C@@H]1Cc2cc3cc(OC4CC(OC5CC(O)C(O)C(C)O5)C(O)C(C)O4)c(C)c(O)c3c(O)c2C(=O)[C@H]1OC1CC(OC2CC(OC3CC(C)(O)C(O)C(C)O3)C(O)C(C)O2)C(O)C(C)O1 (stereo not given in full) | 5.27 | 0.031 | > 11700 | > 16.5 | – | – | – | – | – | –
8 | CCc1ccc(Nc2ccc([N+](=O)[O-])cc2[N+](=O)[O-])cc1 | – | – | – | – | > 100 | > 100 | > 100 | > 100 | > 100 | TGI [8]: > 100 µM
9 | N#CCc1ccc(C(C#N)/C(CCCC(=O)Nc2cccc([N+](=O)[O-])c2)=N/NC(N)=S)cc1 (stereo not given) | – | – | – | – | > 100 | > 100 | > 100 | – | > 100 | TGI [9]: > 100 µM
10 | CCOc1ccc2c(c1)[n+]([O-])c(-c1nc3ccccc3s1)c(N)[n+]2[O-] | – | – | – | – | > 100 | > 100 | > 100 | > 100 | > 100 | TGI [8]: 86.6 µM
11 | COc1ccc(C2SCC(=O)N2NC(=O)Nc2c(C)nc3ccccn23)cc1 (stereo not given) | 24200 | 65 | 40200 | > 100 | – | – | – | – | – | –
12 | OC/C=C(\I)CCCOCOCc1ccccc1 | – | – | – | – | > 100 | 69 | > 100 | > 100 | > 100 | TGI [8]: 45.8 µM
13 | Cc1ccc2c(c1)CN(C(=O)CCC(=O)OCc1ccccc1)c1ccc(C)cc1CN2C(=O)CCC(=O)OCc1ccccc1 | – | > 100 | – | > 100 | > 100 | > 100 | > 100 | > 100 | > 100 | –
14 | Cc1ccc(-c2cc(=O)c3cc(C)c(C)c(C(=O)O)c3o2)cc1C | – | – | – | – | > 100 | > 100 | > 100 | > 100 | > 100 | TGI [9]: > 100 µM
15 | CCOC(=O)c1c(C)nc2c(c1N)/C(=C/c1ccc(OC)cc1)C(=O)N2Cc1ccc(F)cc1 | 169 | 0.365 | 299 | – | – | – | – | – | – | –
16 | COC1=CC2(C=CC1=O)c1cc(OC)c(OC)cc1CCN2C(=O)c1ccccc1 (stereo not given) | – | – | – | – | > 100 | > 100 | – | – | > 100 | –
17 | CC[CH2][Sn]([Cl])([Cl])[CH2]CC.Oc1ccccc1C=NCCN=Cc1ccccc1O | – | – | 16000 | 37.8 | – | – | – | – | – | –
18 | COc1cc2c(c(OC)c1)C1(CC(CC#N)C2)SCCS1 (stereo not given) | – | – | – | – | > 100 | > 100 | > 100 | > 100 | > 100 | TGI [9]: > 100 µM
19 | COc1ccc(-n2cc(-c3cc(OC)c(OC)c(OC)c3)[nH]c2=O)cc1Cl | – | – | > 100000 | > 100 | – | – | – | – | – | –
20 | N.N.O=C([O-])P(=O)([O-])[O-].[Na+].[Pt+4] | – | – | – | – | > 100 | – | > 100 | – | > 100 | GI50 [3]: > 100 µM; GI50 [5]: > 100 µM; GI50 [7]: > 100 µM
21 | Cc1nc(-c2ccccc2)c(-c2ccccc2)s1 | – | 67.1 | – | 65.4 | – | – | – | – | – | –
22 | O=C(/C(=C/c1cccc([N+](=O)[O-])c1)c1ccccc1)c1ccccc1 | 3380 | 13.1 | 2980 | > 100 | – | – | – | – | – | –
23 | Nc1ncn(C2CC(O)C(CO)O2)c(=O)n1 (stereo not given) | – | > 178 | – | > 375 | > 375 | > 375 | > 375 | > 375 | > 375 | TGI [8]: > 80.8 µM
24 | CCO/N=C(/N)c1ncn(Cc2ccccc2)c1NCC(OCC)OCC | – | – | – | – | > 100 | > 100 | > 100 | > 100 | > 100 | TGI [8]: > 100 µM
25 | O=C(/C=C\n1cnc(-c2cc(C(F)(F)F)cc(C(F)(F)F)c2)n1)NNc1cnccn1 | 38.5 | 2.82 | 93.3 | 27.1 | – | – | – | – | – | –
26 | CCc1oc2ccccc2c1C(=O)c1cc(I)c(O)c(I)c1 | 2790 | 13.9 | 1490 | 5.25 | – | – | – | – | – | –
27 | COc1ccc(CNc2nc3cc(C(F)(F)F)ccc3nc2C)cc1OC | – | – | – | – | > 100 | – | > 100 | > 100 | 55.8 | TGI [8]: > 100 µM
28 | N#Cc1cccc(NC(=O)c2cc(-c3ccc(F)cc3F)ccc2O)c1 | 2310 | 7.06 | 2190 | 6.84 | – | – | – | – | – | –
29 | COc1cc2c(c(OC)c1OC)C(=O)[C@@H]1c3ccc([N+](=O)[O-])cc3C(=O)N(CCCBr)[C@H]21 | 14600 | 55.9 | 11000 | 44.9 | – | – | – | – | – | –
30 | CNc1nc(N)c(N=O)c(Nc2ccc(Br)cc2)n1 | – | > 100 | – | > 100 | – | – | – | – | – | –
